Data set [1] has as its system Hep-2 cells.
Data set [2] concerns RS virus. The experiment in a line: RS virus cytopathology / syncytium formation in Hep-2 cells (Table 3). The conditions noted are these: for Suppression of RS virus syncytia (in words) / Effect on RS virus cytopathology (syncytia): Hep-2; for Effect on RS virus cytopathology (syncytia): added 2 hour post infection.
Data set [3] deals with RS virus. The conditions noted are these: moi 1-2, control titers 1-5 × 10^7.
Data set [4] relates to A549.
Data set [5] has as its system CV-1.
In data set [6] the test system is BHK-21.
In data set [7] the test system is RS virus. The data set is described as follows: RS virus cytopathic effect in CV-1 cells. The conditions noted are these: 50 μM; 8 days post infection; over 50% of untreated monolayer destroyed. The class given is cell-based, A2 strain. An excerpt: (§1) This reduction of cytopathology was even more obvious in RS virus infected CV-1 cells examined at 8 days post infection. It was observed that in untreated infected cultures over 50% of the monolayer was destroyed during the multiple cycles of RS virus growth.

For data set [8], the system named is P-3. The experiment in a line: P-3 yield in CV-1 cells maintained with compound 7. The format is cell-based, Parainfluenza type 3. The following applies: 50 μM for 6 days; challenged on day 6.
Data set [9] has as its system HSV-1. The experiment in a line: HSV-1 yield in CV-1 cells maintained with compound 7. The format is cell-based, herpes simplex type 1. The conditions noted are these: 50 μM for 6 days; challenged on day 6.
Data set [10] deals with MP mutant of HSV-1. The data set is described as follows: Fusion of CV-1 cells by MP mutant of HSV-1. The class given is cell-based, herpes simplex type 1.
From the text: A polykaryoctye-forming mutant (MP) of herpes simplex type 1 (HSV-1) was also employed.
as §1

Data set [11] concerns RS virus. The experiment in a line: Multiple cycle yields of RS virus (Table 5). The format is cell-based, A2 strain. The conditions noted are these: for Multiple cycle yield of RS virus, treated: 50 μM. The protocol:
(§2) Virus yields were quantitated by calculating 50 percent end points according to the method of Reed and Muench (A simple method for estimating fifty percent end-points. Am. J. Hyg. b 27, 493-497 (1938)). Briefly, 0.05 ml of virus diluted in MEM plus 10% FCS was added to micro-titer plates. This was followed by the addition of 40,000-60,000 Hep-2 cells in a volume of 0.05 ml. Plates were incubated at 36° C. for 5-7 days. Six or eight wells were used for each dilution. Standard error analysis was done according to the method of Pizzi (Sampling variation of the fifty percent endpoint determined by the Reed-Muench (Behrens) method. Human Biol. 22, 151-180 (1950)).
(§3) For these experiments, Hep- 2 cells were infected with either RS virus or
(§4) P-3 virus at multiplicities of infection of 0.1, 0.01, or 0.001. Following
(§5) a 2 hour adsorption period, the cultures received medium with or without a
(§6) The monolayers were harvested after
(§7) multiple cycles of replication and the yields were determined in
(§8) inhibitor-free microtiter assays.

In data set [12] the test system is P-3 virus. The data set is described as follows: Multiple cycle yields of P-3 virus (Table 5). The class given is cell-based, Parainfluenza type 3. The following applies: 50 μM. The procedure: as §2, §3, §4, §5, §6, §7, §8
Data set [13] has as its system RS virus. The data set is described as follows: RS yields after pretreatment of Hep-2 cells at high multiplicities of infection. The class given is cell-based, A2 strain. An excerpt:
RS virus. Even at high multiplicities of infection, pretreatment of Hep-2
reduction of RS yields. The results in Table 5 also reveal that the […]

The test system of data set [14] is RS virus. The class given is cell-based, A2 strain.
Data set [15] concerns the target plasminogen activator urokinase. The conditions noted are these: cited from earlier work.
The subject of data set [16] is cell growth. The conditions noted are these: cited from earlier work.

Entries after “also recorded” stand apart in the source; their conditions may differ. Where two headings read alike, the source gives them in different places.

Consider `Cn1ccc2cc(C(=N)N)ccc21` [Compound 12, 5-Amidino-1-methylindole], for which, in data set [1], the “Cytotoxicity relative to other compounds (in words)” value is listed as “intermediate in their cytotoxicity”. For the same compound, in [2], the “Inhibition of RS virus / RS virus-induced cell fusion (general statement)” value is “inhibitively effective against RS virus” and the “Suppression of RS virus syncytia (in words)” value (“Suppression” below) is “suppressed the appearance of the characteristic syncytia”.
Regarding `N=C(N)c1ccc2occc2c1` [Compound 10, 5-Amidinobenzofuran], the results for the “Single cycle yield of RS virus (RS virus titers)” value (“Single cycle yield of RS virus” for short) in [3] (10 μM) and in [3] (100 μM) were 1.1 × 10^7 TCID50/ml and 6.3 × 10^7 TCID50/ml, respectively. The “Effect on RS virus cytopathology (syncytia)” value in [2] (10 μM) and in data set [2] (100 μM) was “S” each time.
On to `N=C(N)c1ccc(OCCCCCCOc2ccccc2)cc1` [Compound 3, 1-(4-Amidinophenoxy-6-phenoxyhexane], for which the “Pattern of toxicity compared with Hep-2 cells” value in data set [4], in data set [5] and in data set [6] was “identical pattern of toxicity” throughout. Besides, the “Single cycle yield of RS virus” value in [3] (10 μM) was 3.5 × 10^7 TCID50/ml. The “Effect on RS virus cytopathology (syncytia)” value in data set [2] (10 μM) is on record as “S”.
With `N=C(N)c1ccc(Cn2ccc3cc(C(=N)N)ccc32)cc1` [Compound 13, 5-Amidino-1-(4-amidinobenzyl)indole], the “Cytotoxicity relative to other compounds (in words)” value in data set [1] was “intermediate in their cytotoxicity”. Moreover, in data set [2], the “Inhibition of RS virus / RS virus-induced cell fusion (general statement)” value was “inhibitively effective against RS virus” and the “Suppression” value was “suppressed the appearance of the characteristic syncytia”. Moreover, in data set [2] (0.1 μM), the “Effect on RS virus cytopathology (syncytia)” value is recorded as “S”. The “Effect on RS virus cytopathology (syncytia)” value in [2] (1.0 μM) is recorded as “S”.
As to `N=C(N)c1ccc2nc(Cc3nc4ccc(C(=N)N)cc4[nH]3)[nH]c2c1` [Compound 7, Bis(5-amidino-2-benzimidazolyl)methane], in [7], the “RS virus cytopathic effect in CV-1 cells” value is listed as “preservation of the monolayer with individual foci of infection appearing to be inhibited in their spread to uninfected areas of the culture”. In addition, the “P-3 yield after prolonged exposure of CV-1 cells” value in [8] was “normal yields”. In addition, the “HSV-1 yield after prolonged exposure of CV-1 cells” value in data set [9] was “normal yields”. Further, the “Effect on ability of MP mutant of HSV-1 to fuse cells” value in data set [10] is reported as “no effect”. For the same compound, the “Multiple cycle yield of RS virus, treated” value in data set [11] (moi 0.001, harvested 120 hr post infection, control 2.8 × 10^6) was 1.1 × 10^4 TCID50 /ml; in [11] (moi 0.01, harvested 120 hr post infection, control 3.2 × 10^7), 1.2 × 10^5 TCID50 /ml; in [11] (moi 0.1, harvested 72 hr post infection, control 5.0 × 10^7) it was 6.3 × 10^6 TCID50 /ml. Besides, the “Effect on multiple cycle yields / spreading of RS virus (in words)” value in [11] (compound 7: 50 μM, low moi) was “considerably less; also recorded: greatly reduced the spreading”. Besides, in data set [12] (low moi), the “Effect on yield of P-3 virus (in words)” value is on record as “slight, but consistent decrease”. Further, the “Multiple cycle yield of P-3 virus, treated” value in [12] (moi 0.001, harvested 72 hr post infection, control 2.0 × 10^8) was 6.3 × 10^7 TCID50 /ml; in data set [12] (moi 0.01, harvested 48 hr post infection, control 7.9 × 10^7), 4.6 × 10^7 TCID50 /ml; in data set [12] (moi 0.1, harvested 48 hr post infection, control 3.5 × 10^8), 7.9 × 10^7 TCID50 /ml. For the same compound, the log reduction at 50 µM in data set [13] was 1 to 2. Besides, the “Behavior of RS virus replicated in presence of inhibitor versus control” value in data set [14] (50 μM, RSI series vs C series) is listed as “did not behave differently from the control”. Also, the “Effect on RS virus penetration (in words)” value in data set [14] (compound 7: 50 μM) is “penetration was delayed to a similar degree”. For the same compound, the “RS virus titer, TCID50 (Log 10)” value in data set [14] (titer #1: RSI + I + A, 50 μM) is listed as 4.11 TCID50 (Log 10); in [14] (titer #2: RSI + I + A (so in the source), 50 μM) it was 5.97 TCID50 (Log 10); in [14] (titer #3: RSI - I + A, virus grown with 50 μM, none during adsorption), 5.50 TCID50 (Log 10); in data set [14] (titer #4: RSI - I + A (so in the source), virus grown with 50 μM, none during adsorption), 5.97 TCID50 (Log 10); in data set [14] (titer #5: C + I + A, untreated control #7 (C - I + A) 6.73), 5.59 TCID50 (Log 10); in data set [14] (titer #6: C + I - A, untreated control #8 (C - I + A as printed) 6.97) it was 6.92 TCID50 (Log 10). In addition, the “Pattern of toxicity compared with Hep-2 cells” value in data set [4], in data set [5] and in data set [6] was “identical pattern of toxicity” in each case. The figures for the “Single cycle yield of RS virus” value in [3] (50 μM) and in data set [3] (500 μM) were 6.3 × 10^7 TCID50/ml and 2.0 × 10^7 TCID50/ml, respectively. Further, the “Inhibition of RS virus / RS virus-induced cell fusion (general statement)” value in data set [2] is recorded as “inhibitively effective against RS virus”. The “Effect on RS virus cytopathology (syncytia)” value in [2] (0.1 μM) is on record as “S”. Further, in data set [2] (1.0 μM, moi 1-2, 40 hrs post infection), the “Fusion of RS virus-infected cells (morphology)” value is recorded as “abolition of fusion”. For the same compound, the minimal effective concentration in data set [2] (HEp-2, read-out: Lowest concentration inhibiting syncytium formation) is 1 µM.
For the compound `N=C(N)c1ccc2[nH]ccc2c1` [Compound 9, 5-Amidinoindole], the “Single cycle yield of RS virus” value in data set [3] (10 μM) is 2.9 × 10^7 TCID50/ml; in [3] (100 μM), 6.3 × 10^7 TCID50/ml. Besides, the “Inhibition of RS virus / RS virus-induced cell fusion (general statement)” value in data set [2] is recorded as “inhibitively effective against RS virus”. Further, the “Effect on RS virus cytopathology (syncytia)” value in data set [2] (0.1 μM) and in data set [2] (1.0 μM) was “S” in each case.
In the case of `N=C(N)c1ccc(OCCC(O)COc2ccc(C(=N)N)cc2)cc1` (stereo not shown) [Compound 5, 1,4-Di(4-amidinophenoxy)-2-butanol], the “Single cycle yield of RS virus” value was 0.5 × 10^7 TCID50/ml in data set [3] (10 μM) and 5.0 × 10^5 TCID50/ml in data set [3] (100 μM). The Ki in data set [15] was 3.2 µM. For the same compound, the “Inhibition of RS virus / RS virus-induced cell fusion (general statement)” value in [2] is listed as “inhibitively effective against RS virus”. Moreover, the “Effect on RS virus cytopathology (syncytia)” value in data set [2] (0.1 μM) and in data set [2] (1.0 μM) was “S” in each case. Further, the “Suppression” value in [2] is “suppressed the appearance of the characteristic syncytia”.
Consider `N=C(N)c1ccccc1` [Compound 1, Benzamidine, reference compound], for which the “Single cycle yield of RS virus” value in [3] (50 μM) is 1.1 × 10^7 TCID50/ml. For the same compound, the “Concentration reducing cell growth rates” value in [16] is reported as “greater than 500 μM”. Besides, the “Effect on RS virus cytopathology (syncytia)” value in data set [2] (50 μM) is “S”.
Consider `N=C(N)c1ccc2nc[nH]c2c1` [Compound 11, 5-Amidinobenzimidazole], for which, in [1], the “Cytotoxicity relative to other compounds (in words)” value is reported as “possessed the same or even less toxic activity than benzamidine”. In addition, in data set [3] (100 μM), the “Single cycle yield of RS virus” value is 8.7 × 10^7 TCID50/ml. For the same compound, in data set [2], the “Inhibition of RS virus / RS virus-induced cell fusion (general statement)” value is given as “inhibitively effective against RS virus”. For the same compound, the “Effect on RS virus cytopathology (syncytia)” value in data set [2] (1.0 μM) and in data set [2] (10 μM) was “S” in each case. Further, in data set [2], the “Suppression” value was “suppressed the appearance of the characteristic syncytia”.
With `N=C(N)c1ccc(OCCCCCCCCOc2ccccc2)cc1` [Compound 4, 1-(4-Amidinophenoxy)-8-phenoxyoctane], the “Single cycle yield of RS virus” value in data set [3] (10 μM) is 3.5 × 10^7 TCID50/ml. For the same compound, the “Effect on RS virus cytopathology (syncytia)” value in data set [2] (10 μM) was “S”.
`N=C(N)c1ccc2nc(CCc3nc4ccc(C(=N)N)cc4[nH]3)[nH]c2c1` [Compound 8, 1,2-Bis(5-amidino-2-benzimidazolyl)ethane]: the “Single cycle yield of RS virus” value in data set [3] (10 μM) is 6.3 × 10^7 TCID50/ml; in data set [3] (100 μM) it was 7.9 × 10^7 TCID50/ml. The “Inhibition of RS virus / RS virus-induced cell fusion (general statement)” value in [2] is reported as “inhibitively effective against RS virus”. Moreover, the “Effect on RS virus cytopathology (syncytia)” value in [2] (0.1 μM) and in data set [2] (1.0 μM) was “S” throughout. Moreover, the “Suppression” value in [2] is “lower activity”.

By Ki is commonly meant a dissociation constant, usually derived from enzyme kinetics or from competition with a known ligand.

The record behind these values is patent US4619942A, “Inhibition of Respiratory Syncytial virus-induced cell fusion by amidino compounds” (priority 1983, dated 1986).
